Legend:
Format in all cases: cell-based
human GLUT4 = target: T1, human GLUT4 (Homo sapiens, UniProt P14672); assay: [3H]-deoxy-D-glucose uptake assay, GLUT4; conditions: [3H]-deoxy-D-glucose uptake in HEK293 cells stably expressing human GLUT4
T1 construct: expressed in transfected cells
T1 sequence (P14672 1-509): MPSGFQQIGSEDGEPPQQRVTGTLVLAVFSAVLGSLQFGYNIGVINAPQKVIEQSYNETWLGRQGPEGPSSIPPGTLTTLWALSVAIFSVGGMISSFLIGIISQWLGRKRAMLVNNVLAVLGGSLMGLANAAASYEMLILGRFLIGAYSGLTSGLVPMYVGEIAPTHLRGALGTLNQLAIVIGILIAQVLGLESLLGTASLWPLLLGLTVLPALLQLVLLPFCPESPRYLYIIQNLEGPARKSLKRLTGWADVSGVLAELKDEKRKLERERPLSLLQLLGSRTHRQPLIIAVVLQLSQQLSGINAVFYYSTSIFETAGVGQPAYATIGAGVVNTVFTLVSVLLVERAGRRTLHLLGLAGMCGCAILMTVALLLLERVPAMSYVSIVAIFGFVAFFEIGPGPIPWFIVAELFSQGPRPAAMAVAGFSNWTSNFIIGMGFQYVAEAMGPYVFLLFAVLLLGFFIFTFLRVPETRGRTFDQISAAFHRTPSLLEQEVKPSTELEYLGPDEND
Description: (§1) HEK293 cells were engineered to stably express either human GLUT1, GLUT2, GLUt3 or GLUT4 by transfection with the pReceiver-Lv105 plasmid, containing either hGLUT1, hGLUT2, hGLUT3, or hGLUT4 gene constructs with lipofectamine 2000, hGLUT1- hGLUT2- hGLUT3- or hGLUT4-overexpressing polyclonal populations were isolated under purinomycin selective pressure (1 μg/ml) and maintained in Dulbecco's modified Eagle's medium supplemented with 1 μg/ml purinomycin+10% foetal bovine serum (FBS).
(§2) 60,000 cells per well were seeded overnight into poly-D-lysine coasted 96-well plates. Following media removal, cells were washed twice in warm glucose-free uptake buffer (25 mM HEPES/KOH pH 7.4, 125 mM NaCl, 4.8 mM KCl, 1.2 mM MgSO4, 1.2 mM CaCl2, 1.2 mM KH2PO4). 90 μl of test compounds were added in glucose-free uptake buffer and cells were incubated at 37° C. for 30 min. 10 μl of [3H]-deoxy-D-glucose (0.25 μCi, 125 μM final assay concentration) was then added per well in glucose-free uptake buffer and uptake was allowed to proceed at 37° C. for 30 min.
(§3) Cells were then washed twice with ice-cold PBS and 100 μl of Microscint-20 was added per well. Glucose uptake was quantified with a scintillation counter. The half maximal inhibitory concentration (IC50) (a measure of the effectiveness of the test compound in inhibiting glucose uptake) was determined.

human GLUT3 = target: T2, human GLUT3 (Homo sapiens, UniProt P11169); assay: [3H]-deoxy-D-glucose uptake assay, GLUT3; conditions: [3H]-deoxy-D-glucose uptake in HEK293 cells stably expressing human GLUT3
T2 construct: expressed in transfected cells
T2 sequence (P11169 1-496): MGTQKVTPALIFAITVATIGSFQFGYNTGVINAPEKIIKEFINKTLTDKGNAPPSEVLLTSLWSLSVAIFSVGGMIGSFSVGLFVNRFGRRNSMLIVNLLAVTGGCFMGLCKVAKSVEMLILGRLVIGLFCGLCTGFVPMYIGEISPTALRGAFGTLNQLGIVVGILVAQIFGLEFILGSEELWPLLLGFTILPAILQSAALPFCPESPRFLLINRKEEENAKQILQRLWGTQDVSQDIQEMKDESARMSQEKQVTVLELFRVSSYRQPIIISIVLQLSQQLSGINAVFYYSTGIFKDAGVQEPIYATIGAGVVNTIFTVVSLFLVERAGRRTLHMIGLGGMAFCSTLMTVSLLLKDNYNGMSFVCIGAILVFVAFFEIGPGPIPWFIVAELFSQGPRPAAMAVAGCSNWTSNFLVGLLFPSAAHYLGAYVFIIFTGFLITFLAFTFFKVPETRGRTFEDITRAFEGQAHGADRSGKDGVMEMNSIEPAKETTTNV
Description: as §1, §2, §3

human GLUT1 = target: T3, human GLUT1 (Homo sapiens, UniProt P11166); assay: [3H]-deoxy-D-glucose uptake assay, GLUT1; conditions: [3H]-deoxy-D-glucose uptake in HEK293 cells stably expressing human GLUT1
T3 construct: expressed in transfected cells
T3 sequence (P11166 1-492): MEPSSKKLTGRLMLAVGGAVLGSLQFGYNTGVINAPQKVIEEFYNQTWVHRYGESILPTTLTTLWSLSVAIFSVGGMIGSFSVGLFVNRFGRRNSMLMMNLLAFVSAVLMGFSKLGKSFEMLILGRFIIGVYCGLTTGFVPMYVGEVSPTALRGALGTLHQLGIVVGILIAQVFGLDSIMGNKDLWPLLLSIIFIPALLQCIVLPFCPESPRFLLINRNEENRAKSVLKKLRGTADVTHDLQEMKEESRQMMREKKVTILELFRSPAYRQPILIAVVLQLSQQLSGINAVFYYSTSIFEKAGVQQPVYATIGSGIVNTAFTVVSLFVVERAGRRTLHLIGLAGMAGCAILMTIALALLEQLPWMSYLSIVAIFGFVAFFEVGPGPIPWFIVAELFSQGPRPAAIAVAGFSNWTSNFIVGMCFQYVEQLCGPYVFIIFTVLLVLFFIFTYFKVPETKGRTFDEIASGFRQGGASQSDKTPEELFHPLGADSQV
Procedure, shortened: (§4)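 HEK293 cells stably overexpressing human GLUT1 or GLUT2, seeded at 60,000 per well, treated with compounds in glucose-free uptake buffer for 30 min at 37 °C. [3H]-deoxy-D-glucose uptake quantified by scintillation counting after ice-cold PBS washes; IC50 determined.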

human GLUT2 = target: T4, human GLUT2 (Homo sapiens, UniProt P11168); assay: [3H]-deoxy-D-glucose uptake assay, GLUT2; conditions: [3H]-deoxy-D-glucose uptake in HEK293 cells stably expressing human GLUT2
T4 construct: expressed in transfected cells
T4 sequence (P11168 1-524): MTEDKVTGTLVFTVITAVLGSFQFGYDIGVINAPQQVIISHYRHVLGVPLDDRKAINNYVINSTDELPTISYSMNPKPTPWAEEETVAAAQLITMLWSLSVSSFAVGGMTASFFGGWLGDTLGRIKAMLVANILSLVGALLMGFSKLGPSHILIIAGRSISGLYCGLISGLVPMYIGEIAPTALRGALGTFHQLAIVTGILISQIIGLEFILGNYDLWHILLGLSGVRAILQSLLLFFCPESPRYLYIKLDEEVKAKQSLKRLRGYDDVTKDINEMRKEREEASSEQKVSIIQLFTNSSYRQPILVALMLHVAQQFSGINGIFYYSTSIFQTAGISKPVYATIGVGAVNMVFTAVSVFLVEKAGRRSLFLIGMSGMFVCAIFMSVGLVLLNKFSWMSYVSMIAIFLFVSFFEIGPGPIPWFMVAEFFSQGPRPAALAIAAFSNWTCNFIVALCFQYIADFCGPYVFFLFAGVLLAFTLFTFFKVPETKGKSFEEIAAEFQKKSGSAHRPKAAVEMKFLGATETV
Procedure, shortened: as §4

| SMILES | GLUT4 pIC50 (human GLUT4) | GLUT3 pIC50 (human GLUT3) | GLUT1 pIC50 (human GLUT1) | GLUT2 pIC50 (human GLUT2) |
| --- | --- | --- | --- | --- |
| O=C(c1cscn1)N1CCN(Cc2c(-c3ccc(Cl)cc3Cl)nc3cnc(C4CC4)cn23)CC1 [Compound 306] | +++ (pIC50 ≧ 6.00) | +++ (pIC50 ≧ 6.00) | +++ (pIC50 ≧ 6.00) | +++ (pIC50 ≧ 6.00) |
| CN(c1ccc2nc(-c3ccc(Cl)cc3)c(CN3CCN(C(=O)C4COC4)CC3)n2c1)S(C)(=O)=O [Compound 309] | +++ (pIC50 ≧ 6.00) | +++ (pIC50 ≧ 6.00) | +++ (pIC50 ≧ 6.00) | ++ (pIC50 5.00-5.99) |
| CN(c1ccc2nc(-c3ccc(Cl)cc3)c(CN3CCN(C(=O)c4ccnnc4)CC3)n2c1)S(C)(=O)=O [Compound 310] | +++ (pIC50 ≧ 6.00) | +++ (pIC50 ≧ 6.00) | +++ (pIC50 ≧ 6.00) | ++ (pIC50 5.00-5.99) |
| COCC(=O)N1CCN(Cc2c(-c3ccc(Cl)cc3Cl)nc3cnc(C4CC4)cn23)CC1 [Compound 311] | +++ (pIC50 ≧ 6.00) | +++ (pIC50 ≧ 6.00) | +++ (pIC50 ≧ 6.00) | +++ (pIC50 ≧ 6.00) |
| CC(=O)N1CCN(Cc2c(-c3ccc(Cl)cc3Cl)nc3ccc(NS(C)(=O)=O)cn23)CC1 [Compound 313] | +++ (pIC50 ≧ 6.00) | +++ (pIC50 ≧ 6.00) | +++ (pIC50 ≧ 6.00) | ++ (pIC50 5.00-5.99) |
| CCS(=O)(=O)Nc1ccc2nc(-c3ccc(Cl)cc3)c(CN3CCN(C(C)=O)CC3)n2c1 [Compound 314] | +++ (pIC50 ≧ 6.00) | +++ (pIC50 ≧ 6.00) | +++ (pIC50 ≧ 6.00) | ++ (pIC50 5.00-5.99) |
| CCS(=O)(=O)N(C)c1ccc2nc(-c3ccc(Cl)cc3)c(CN3CCN(C(C)=O)CC3)n2c1 [Compound 316] | +++ (pIC50 ≧ 6.00) | +++ (pIC50 ≧ 6.00) | +++ (pIC50 ≧ 6.00) | ++ (pIC50 5.00-5.99) |
| O=C(CO)N1CCN(Cc2c(-c3ccc(Cl)cc3Cl)nc3cnc(C4CC4)cn23)CC1 [Compound 321] | +++ (pIC50 ≧ 6.00) | +++ (pIC50 ≧ 6.00) | +++ (pIC50 ≧ 6.00) | +++ (pIC50 ≧ 6.00) |
| CC(C)(O)C(=O)N1CCN(Cc2c(-c3ccc(Cl)cc3Cl)nc3cnc(C4CC4)cn23)CC1 [Compound 322] | +++ (pIC50 ≧ 6.00) | +++ (pIC50 ≧ 6.00) | +++ (pIC50 ≧ 6.00) | +++ (pIC50 ≧ 6.00) |

The remaining lines, values ahead:

| GLUT4 pIC50 (human GLUT4) | GLUT3 pIC50 (human GLUT3) | GLUT1 pIC50 (human GLUT1) | GLUT2 pIC50 (human GLUT2) | SMILES |
| --- | --- | --- | --- | --- |
| +++ (pIC50 ≧ 6.00) | +++ (pIC50 ≧ 6.00) | +++ (pIC50 ≧ 6.00) | +++ (pIC50 ≧ 6.00) | CC(=O)N1CCN(Cc2c(-c3ccc(Cl)cc3)nc3ccc(N4CCCCS4(=O)=O)cn23)CC1 [Compound 326] |
| +++ (pIC50 ≧ 6.00) | +++ (pIC50 ≧ 6.00) | +++ (pIC50 ≧ 6.00) | +++ (pIC50 ≧ 6.00) | CC(=O)N1CCN(Cc2c(-c3ccc(Cl)cc3Cl)nc3ccc(N(C)S(C)(=O)=O)cn23)CC1 [Compound 333] |
| +++ (pIC50 ≧ 6.00) | +++ (pIC50 ≧ 6.00) | +++ (pIC50 ≧ 6.00) | ++ (pIC50 5.00-5.99) | CS(=O)(=O)Nc1ccc2nc(-c3ccc(Cl)cc3Cl)c(CN3CCN(C(=O)C4COC4)CC3)n2c1 [Compound 334] |
| +++ (pIC50 ≧ 6.00) | +++ (pIC50 ≧ 6.00) | +++ (pIC50 ≧ 6.00) | +++ (pIC50 ≧ 6.00) | CN(c1ccc2nc(-c3ccc(Cl)cc3Cl)c(CN3CCN(C(=O)C4COC4)CC3)n2c1)S(C)(=O)=O [Compound 335] |
| +++ (pIC50 ≧ 6.00) | +++ (pIC50 ≧ 6.00) | +++ (pIC50 ≧ 6.00) | ++ (pIC50 5.00-5.99) | COCC(=O)N1CCN(Cc2c(-c3ccc(Cl)cc3Cl)nc3ccc(NS(C)(=O)=O)cn23)CC1 [Compound 336] |
| +++ (pIC50 ≧ 6.00) | +++ (pIC50 ≧ 6.00) | +++ (pIC50 ≧ 6.00) | +++ (pIC50 ≧ 6.00) | CC(=O)N1CCN(Cc2c(-c3ccc(Cl)cc3Cl)nc3ccc(N4CCCS4(=O)=O)cn23)CC1 [Compound 339] |
| +++ (pIC50 ≧ 6.00) | +++ (pIC50 ≧ 6.00) | +++ (pIC50 ≧ 6.00) | ++ (pIC50 5.00-5.99) | CC(=O)N1CCN(Cc2c(-c3ccc(Cl)cc3)nc3ccc(N(C)S(=O)(=O)C(C)C)cn23)CC1 [Compound 340] |

From patent US20160120863A1, “SLC2A TRANSPORTER INHIBITORS” (IOMET PHARMA LTD., priority 2013, published 2016)
